Measured values published in PubChem BioAssay AID2060601 (Molecular Pharmacology Branch, DTP, NCI, 2025).
pIC50: −log10 of the molar value.

Test system: 874868-142-R-J2-PDC complex spheroids, growth % test/control
Experiment: Anticancer human tumor 874868-142-R-J2-PDC patient-derived head and neck squamous carcinoma cell line growth inhibition [CLK]
Settings: for pIC50: curve of first compound; for viability, T/C: stronger effect = lower value
Summary of the method: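 Patient-derived tumor cells grown as complex spheroids with HUVEC endothelial cells and mesenchymal stem cells, treated with drug combinations. Concentrations descend in half-log steps from near clinical Cmax, or from 10 microM if Cmax unknown.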

[1] = second compound 0.0316 µM, first compound 0.0316 µM
[2] = second compound 0.0316 µM, first compound 0.1 µM
[3] = second compound 0.0316 µM, first compound 0.316 µM
[4] = second compound 0.0316 µM, first compound 1 µM
[5] = second compound 0.0316 µM, first compound 3.16 µM
[6] = second compound 0.0316 µM, first compound 10 µM
[7] = second compound 0.1 µM, first compound 0.0316 µM
[8] = second compound 0.1 µM, first compound 0.1 µM
[9] = second compound 0.1 µM, first compound 0.316 µM
[10] = second compound 0.1 µM, first compound 1 µM
[11] = second compound 0.1 µM, first compound 3.16 µM
[12] = second compound 0.1 µM, first compound 10 µM
[13] = second compound 0.316 µM, first compound 0.0316 µM
[14] = second compound 0.316 µM, first compound 0.1 µM
[15] = second compound 0.316 µM, first compound 0.316 µM
[16] = second compound 0.316 µM, first compound 1 µM
[17] = second compound 0.316 µM, first compound 3.16 µM
[18] = second compound 0.316 µM, first compound 10 µM
[19] = second compound 1 µM, first compound 0.0316 µM
[20] = second compound 1 µM, first compound 0.1 µM
[21] = second compound 1 µM, first compound 0.316 µM
[22] = second compound 1 µM, first compound 1 µM
[23] = second compound 1 µM, first compound 3.16 µM
[24] = second compound 1 µM, first compound 10 µM
[25] = second compound 3.16 µM, first compound 0.0316 µM
[26] = second compound 3.16 µM, first compound 0.1 µM
[27] = second compound 3.16 µM, first compound 0.316 µM
[28] = second compound 3.16 µM, first compound 1 µM
[29] = second compound 3.16 µM, first compound 3.16 µM
[30] = second compound 3.16 µM, first compound 10 µM
[31] = second compound 10 µM, first compound 0.0316 µM
[32] = second compound 10 µM, first compound 0.1 µM
[33] = second compound 10 µM, first compound 0.316 µM
[34] = second compound 10 µM, first compound 1 µM
[35] = second compound 10 µM, first compound 3.16 µM
[36] = second compound 10 µM, first compound 10 µM
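Note: spheroids exposed to the compounds for 7 days.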
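Throughout, for viability, T/C: 100% = DMSO vehicle control viability.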

COc1ccc([C@@H](O)c2cc(-c3ncnc4cc(N5CCOCC5)ccc34)c(F)cc2Cl)nn1 + CN1CCN(c2cc(C(=O)Nc3cc4cc(-c5cnn(C)c5)ccc4cn3)ccn2)CC1 showed a pIC50 (second compound 0.0316 µM) of 5.70, a pIC50 (second compound 0.1 µM) of 6.05 and a pIC50 (second compound 0.316 µM) greater than 7.50. It also gave a pIC50 (second compound 1 µM) greater than 7.50, a pIC50 (second compound 3.16 µM) greater than 7.50 and a pIC50 (second compound 10 µM) greater than 7.50. For the same compound, the viability, T/C [1] was 83.6%, the viability, T/C [2] was 77.9% and the viability, T/C [3] was 74.9%. It also gave a viability, T/C [4] of 70.4%, a viability, T/C [5] of 36.1% and a viability, T/C [6] of 32.6%. For the same compound, the viability, T/C [7] was 71%, the viability, T/C [8] was 62.7% and the viability, T/C [9] was 64.5%. The viability, T/C [10] was 48.8%, the viability, T/C [11] was 30.9% and the viability, T/C [12] was 30.3%. It also gave a viability, T/C [13] of 17.3%, a viability, T/C [14] of 12.2% and a viability, T/C [15] of 13.4%. The viability, T/C [16] was 9.3%, the viability, T/C [17] was 14.9% and the viability, T/C [18] was 13.4%. The viability, T/C [19] was 0.18%, the viability, T/C [20] was 0.23% and the viability, T/C [21] was 2.66%. For the same compound, the viability, T/C [22] was 0.22%, the viability, T/C [23] was 0.24% and the viability, T/C [24] was 0.33%. The viability, T/C [25] was 0.22%, the viability, T/C [26] was 0.16% and the viability, T/C [27] was 3.99%. For the same compound, the viability, T/C [28] was 0.25%, the viability, T/C [29] was 0.23% and the viability, T/C [30] was 0.35%. The viability, T/C [31] was 0.06%, the viability, T/C [32] was 0.15% and the viability, T/C [33] was 2.92%. It also gave a viability, T/C [34] of 0.15%, a viability, T/C [35] of 0.22% and a viability, T/C [36] of 3.6%.

Work on COc1cccc2c1C(=O)c1c(O)c3c(c(O)c1C2=O)CC(O)(C(=O)CO)CC3OC1CC(N)C(O)C(C)O1 (stereo unspecified) + CN1CCN(c2cc(C(=O)Nc3cc4cc(-c5cnn(C)c5)ccc4cn3)ccn2)CC1 yielded a pIC50 (second compound 0.0316 µM) of 7.06, a pIC50 (second compound 0.1 µM) of 7.33 and a pIC50 (second compound 0.316 µM) greater than 7.50. It also gave a pIC50 (second compound 1 µM) greater than 7.50, a pIC50 (second compound 3.16 µM) greater than 7.50 and a pIC50 (second compound 10 µM) greater than 7.50. For the same compound, the viability, T/C [1] was 63.8%, the viability, T/C [2] was 45.1% and the viability, T/C [3] was 28.2%. It also gave a viability, T/C [4] of 1.26%, a viability, T/C [5] of 0.13% and a viability, T/C [6] of 0.12%. The viability, T/C [7] was 55.6%, the viability, T/C [8] was 38.7% and the viability, T/C [9] was 20.3%. The viability, T/C [10] was 1.08%, the viability, T/C [11] was 0.17% and the viability, T/C [12] was 0.22%. For the same compound, the viability, T/C [13] was 14.6%, the viability, T/C [14] was 12.6% and the viability, T/C [15] was 3.13%. For the same compound, the viability, T/C [16] was 0.26%, the viability, T/C [17] was 0.13% and the viability, T/C [18] was 0.18%. For the same compound, the viability, T/C [19] was 0.21%, the viability, T/C [20] was 0.85% and the viability, T/C [21] was 0.41%. It also gave a viability, T/C [22] of 0.34%, a viability, T/C [23] of 0.12% and a viability, T/C [24] of 0.14%. It also gave a viability, T/C [25] of 0.22%, a viability, T/C [26] of 0.15% and a viability, T/C [27] of 2.26%. It also gave a viability, T/C [28] of 0.14%, a viability, T/C [29] of 0.21% and a viability, T/C [30] of 0.12%. The viability, T/C [31] was 0.07%, the viability, T/C [32] was 0.94% and the viability, T/C [33] was 0.15%. For the same compound, the viability, T/C [34] was 0.12%, the viability, T/C [35] was 0.14% and the viability, T/C [36] was 0.67%.

In the case of C=C(F)C(=O)N1CCN(c2nc(OCC3CCCN3C)nc3c2CCN(c2cccc4cccc(Cl)c24)C3)CC1CC#N (stereo unspecified) + CNC(=O)c1ccc(Nc2nc(OC3CCCC3)c3c(-c4ccc5nc(C)oc5c4)c[nH]c3n2)c(OC)c1, the pIC50 (second compound 0.0316 µM) was 5.46, the pIC50 (second compound 0.1 µM) was 5.47 and the pIC50 (second compound 0.316 µM) was greater than 7.50. The pIC50 (second compound 1 µM) was greater than 7.50, the pIC50 (second compound 3.16 µM) was greater than 7.50 and the pIC50 (second compound 10 µM) was greater than 7.50. For the same compound, the viability, T/C [1] was 91.7%, the viability, T/C [2] was 70.4% and the viability, T/C [3] was 89.3%. It also gave a viability, T/C [4] of 68.4%, a viability, T/C [5] of 56.8% and a viability, T/C [6] of 0.28%. The viability, T/C [7] was 71.2%, the viability, T/C [8] was 68.8% and the viability, T/C [9] was 65.9%. The viability, T/C [10] was 61.6%, the viability, T/C [11] was 54.6% and the viability, T/C [12] was 0.63%. The viability, T/C [13] was 50.5%, the viability, T/C [14] was 49.2% and the viability, T/C [15] was 47.6%. The viability, T/C [16] was 43.8%, the viability, T/C [17] was 38.5% and the viability, T/C [18] was 1.18%. For the same compound, the viability, T/C [19] was 44.4%, the viability, T/C [20] was 33% and the viability, T/C [21] was 36.7%. For the same compound, the viability, T/C [22] was 38.5%, the viability, T/C [23] was 35.2% and the viability, T/C [24] was 0.25%. The viability, T/C [25] was 37.5%, the viability, T/C [26] was 41.8% and the viability, T/C [27] was 31%. It also gave a viability, T/C [28] of 38%, a viability, T/C [29] of 32.2% and a viability, T/C [30] of 7.83%. For the same compound, the viability, T/C [31] was 36.1%, the viability, T/C [32] was 35.1% and the viability, T/C [33] was 38.1%. The viability, T/C [34] was 39.1%, the viability, T/C [35] was 31.1% and the viability, T/C [36] was 3.95%.
